For 2 compounds, pest or weed control and plant injury results are on record in US12077503B2, “Substituted cyclic amides and their use as herbicides” (FMC CORPORATION, priority 2015, dated 2024).

Each structure is given as a SMILES string. Read-outs that look alike come from different tables or passages of the source.

Common to all, as to assay type: in vivo
In assay [1] the test system is sedge, umbrella (small-flower umbrella sedge, Cyperus difformis). Nature of the assay: Test B flooded paddy test. As to conditions: Cyperus difformis, 250 g ai/ha, Flood; 0 to 100 scale where 0 is no effect and 100 is complete control; read-out: Sedge, Umbrella plant response rating. The gist of the method:
(§1)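 2-leaf plants; pots flooded 3 cm over soil; cpd added to paddy water; depth held; greenhouse 13–15 d; visual rating vs controls, 0 = no effect, 100 = complete control.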

The next assay relates to rice (Oryra sativa). Nature of the assay: Test B flooded paddy test. As to conditions: Oryza sativa, 250 g ai/ha, Flood, read-out: Rice plant response rating. The gist of the method: as §1
For assay [2], the system named is ducksalad (Heteranthera limosa). Nature of the assay: Test B flooded paddy test. The following applies: Heteranthera limosa, 250 g ai/ha, Flood, read-out: Ducksalad plant response rating. Put shortly:
as §1

Assay [3] concerns barnyardgrass (Echinochloa crus-galli). Nature of the assay: Test B flooded paddy test. The following applies: Echinochloa crus-galli, 250 g ai/ha, Flood, read-out: Barnyardgrass plant response rating. The gist of the method: as §1
The test system of assay [4] is ragweed (common ragweed, Ambrosia elatior). Nature of the assay: Test A preemergence. The following applies: Ambrosia artemisiifolia, pre-emergence, 240 h; for pest or weed control at 125 g/ha: 125 g ai/ha; for pest or weed control at 500 g/ha: 500 g ai/ha. Put shortly: (§2)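 Seeded soil received test chemicals as a preemergence directed spray, and seedlings at one to two leaves, 2–10 cm tall, received them postemergence, in a non-phytotoxic, surfactant-containing solvent mixture. Pots were held in a greenhouse for approximately 10 d, then rated for injury from 0, no effect, to 100, complete control.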

The test system of assay [5] is giant foxtail (Setaria faberii). Nature of the assay: Test A preemergence. The following applies: Setaria faberi, pre-emergence, 240 h; for pest or weed control at 125 g/ha: 125 g ai/ha; for pest or weed control at 500 g/ha: 500 g ai/ha. Put shortly:
as §2

The test system of assay [6] is Kochia (Kochia scoparia). Nature of the assay: Test A preemergence. The following applies: Bassia scoparia, pre-emergence, 240 h, preemergence, read-out: Kochia plant response rating; for pest or weed control at 500 g/ha: 500 g ai/ha. Put shortly: as §2
Assay [7] relates to ryegrass, Italian (Italian ryegrass, Lolium multiflorum). Nature of the assay: Test A preemergence. As to conditions: Lolium multiflorum, pre-emergence, 240 h; for pest or weed control at 125 g/ha: 125 g ai/ha; for pest or weed control at 500 g/ha: 500 g ai/ha. Put shortly:
as §2

The test system of assay [8] is barnyardgrass (Echinochloa crus-galli). Nature of the assay: Test A preemergence. The following applies: Echinochloa crus-galli, pre-emergence, 240 h; for pest or weed control at 125 g/ha: 125 g ai/ha; for pest or weed control at 500 g/ha: 500 g ai/ha. The gist of the method:
as §2

Assay [9] deals with pigweed (Amaranthus retroflexus). Nature of the assay: Test A preemergence. The following applies: Amaranthus retroflexus, pre-emergence, 240 h; for pest or weed control at 125 g/ha: 125 g ai/ha; for pest or weed control at 500 g/ha: 500 g ai/ha.
Assay [10] deals with giant foxtail (Setaria faberii). Nature of the assay: Test A postemergence. The following applies: Setaria faberi, post-emergence, 240 h; for pest or weed control at 125 g/ha: 125 g ai/ha. The gist of the method:
as §2

For assay [11], the system named is Kochia (Kochia scoparia). Nature of the assay: Test A postemergence. As to conditions: Bassia scoparia, post-emergence, 240 h; for pest or weed control at 125 g/ha: 125 g ai/ha. The gist of the method:
as §2

The subject of assay [12] is Galium (catchweed bedstraw, Galium aparine). Nature of the assay: Test A postemergence. The following applies: Galium, post-emergence, 240 h; for pest or weed control at 125 g/ha: 125 g ai/ha. Put shortly:
as §2

The subject of assay [13] is pigweed (Amaranthus retroflexus). Nature of the assay: Test A postemergence. As to conditions: Amaranthus retroflexus, post-emergence, 240 h; for pest or weed control at 125 g/ha: 125 g ai/ha. The gist of the method:
as §2

The test system of assay [14] is wheat (Triticum aestivum). Nature of the assay: Test A postemergence. As to conditions: Triticum aestivum, post-emergence, 240 h; for plant injury at 125 g/ha: 125 g ai/ha. The gist of the method: as §2
Setting [15] is: 0 to 100 scale where 0 is no effect and 100 is complete control.
[16] abbreviates: scale of 0 to 100 where 0 is no effect and 100 is complete control.

As to `CN1C[C@H](c2ccc(C#N)cc2)[C@@H](C(=O)Nc2ccc(F)c(F)c2F)C1=O` [Compound 1229], the pest or weed control at 250 g/ha in assay [1] is 0%; in the assay with rice (Oryra sativa) (setting [15]), 0%; in assay [2] (setting [15]) it was 90%; in assay [3] (setting [15]), 50%. The pest or weed control at 125 g/ha in assay [4] (preemergence, visual injury rating, 0 to 100 scale where 0 is no effect and 100 is complete control, approximately 10 d, read-out: Ragweed plant response rating) worked out at 60%; in [5] (preemergence, visual injury rating, 0 to 100 scale where 0 is no effect and 100 is complete control, approximately 10 d, read-out: Foxtail, Giant plant response rating), 100%; in the assay on Kochia (Kochia scoparia) [6] (125 g ai/ha, visual injury rating, 0 to 100 scale where 0 is no effect and 100 is complete control, approximately 10 d), 90%; in assay [7] (preemergence, visual injury rating, 0 to 100 scale where 0 is no effect and 100 is complete control, approximately 10 d, read-out: Ryegrass, Italian plant response rating) it was 0%; in assay [8] (preemergence, visual injury rating, 0 to 100 scale where 0 is no effect and 100 is complete control, approximately 10 d, read-out: Barnyardgrass plant response rating), 90%; in assay [9] (preemergence, visual injury rating, 0 to 100 scale where 0 is no effect and 100 is complete control, approximately 10 d, read-out: Pigweed plant response rating), 60%. Further, the pest or weed control at 125 g/ha in assay [10] (postemergence, visual injury vs untreated controls after approx. 10 d, 0 = no effect, 100 = complete control, read-out: Foxtail, Giant plant response rating (0 to 100 scale)) turned out to be 90%; in the assay with Kochia (Kochia scoparia) [11] (postemergence, visual injury vs untreated controls after approx. 10 d, 0 = no effect, 100 = complete control, read-out: Kochia plant response rating (0 to 100 scale)), 70%; in assay [12] (postemergence, visual injury vs untreated controls after approx. 10 d, 0 = no effect, 100 = complete control, read-out: Galium plant response rating (0 to 100 scale)), 40%; in assay [13] (postemergence, visual injury vs untreated controls after approx. 10 d, 0 = no effect, 100 = complete control, read-out: Pigweed plant response rating (0 to 100 scale)), 40%. The pest or weed control at 500 g/ha is 70% in assay [4] (preemergence, 0 to 100 scale where 0 is no effect and 100 is complete control, read-out: Ragweed plant response rating); 100% in [5] (preemergence, 0 to 100 scale where 0 is no effect and 100 is complete control, read-out: Foxtail, Giant plant response rating); 90% with Kochia (Kochia scoparia) [6] (setting [15]); 40% in assay [7] (preemergence, 0 to 100 scale where 0 is no effect and 100 is complete control, read-out: Ryegrass, Italian plant response rating); 100% in assay [8] (preemergence, 0 to 100 scale where 0 is no effect and 100 is complete control, read-out: Barnyardgrass plant response rating); 90% in assay [9] (preemergence, 0 to 100 scale where 0 is no effect and 100 is complete control, read-out: Pigweed plant response rating). Further, the pest or weed control at 500 g/ha in assay [10] (500 g ai/ha, postemergence, 0 to 100 scale, 0 is no effect, 100 is complete control, read-out: Foxtail, Giant plant response rating) worked out at 90%; in the assay with Kochia (Kochia scoparia) [11] (500 g ai/ha, postemergence, 0 to 100 scale, 0 is no effect, 100 is complete control, read-out: Kochia plant response rating) it was 80%; in assay [12] (500 g ai/ha, postemergence, 0 to 100 scale, 0 is no effect, 100 is complete control, read-out: Galium plant response rating), 50%; in assay [13] (500 g ai/ha, postemergence, 0 to 100 scale, 0 is no effect, 100 is complete control, read-out: Pigweed plant response rating), 60%. Moreover, the plant injury at 125 g/ha in assay [14] (postemergence, visual injury vs untreated controls after approx. 10 d, 0 = no effect, 100 = complete control, read-out: Wheat plant response rating (0 to 100 scale)) stood at 0%. Also, the plant injury at 500 g/ha in [14] (500 g ai/ha, postemergence, 0 to 100 scale, 0 is no effect, 100 is complete control, read-out: Wheat plant response rating) stood at 50%.
On to `CN1C[C@H](c2cc(F)cc(C(F)(F)F)c2)[C@@H](C(=O)Nc2cccc(Cl)c2F)C1=O` [Compound 995], for which the pest or weed control at 250 g/ha in [1] was 30%; with rice (Oryra sativa) (setting [16]), 0%; in assay [2] (setting [16]), 70%; in assay [3] (setting [16]), 25%. The pest or weed control at 125 g/ha is 0% in assay [4] (Preemergence, visual injury rating after approximately 10 d, read-out: Ragweed plant response rating (0 to 100 scale, 0 is no effect, 100 is complete control)); 90% in assay [5] (Preemergence, visual injury rating after approximately 10 d, read-out: Foxtail, Giant plant response rating (0 to 100 scale, 0 is no effect, 100 is complete control)); 20% in assay [7] (Preemergence, visual injury rating after approximately 10 d, read-out: Ryegrass, Italian plant response rating (0 to 100 scale, 0 is no effect, 100 is complete control)); 80% in assay [8] (Preemergence, visual injury rating after approximately 10 d, read-out: Barnyardgrass plant response rating (0 to 100 scale, 0 is no effect, 100 is complete control)); 20% in [9] (Preemergence, visual injury rating after approximately 10 d, read-out: Pigweed plant response rating (0 to 100 scale, 0 is no effect, 100 is complete control)); 80% in [10] (Postemergence, visual injury after approximately 10 d, 0 to 100 scale where 0 is no effect and 100 is complete control, read-out: Plant response rating, Foxtail, Giant). The pest or weed control at 125 g/ha was found to be 0% in the assay with Kochia (Kochia scoparia) [11] (Postemergence, visual injury after approximately 10 d, 0 to 100 scale where 0 is no effect and 100 is complete control, read-out: Plant response rating, Kochia); 40% in assay [12] (Postemergence, visual injury after approximately 10 d, 0 to 100 scale where 0 is no effect and 100 is complete control, read-out: Plant response rating, Galium); 0% in [13] (Postemergence, visual injury after approximately 10 d, 0 to 100 scale where 0 is no effect and 100 is complete control, read-out: Plant response rating, Pigweed). Also, the pest or weed control at 500 g/ha in assay [4] (preemergence, visual injury rating about 10 d after treatment, 0 to 100 scale (0 no effect, 100 complete control), read-out: Ragweed plant response rating) is 20%; in [5] (preemergence, visual injury rating about 10 d after treatment, 0 to 100 scale (0 no effect, 100 complete control), read-out: Foxtail, Giant plant response rating), 90%; in the assay with Kochia (Kochia scoparia) [6] (visual injury rating about 10 d after treatment, 0 to 100 scale (0 no effect, 100 complete control)), 0%; in assay [7] (preemergence, visual injury rating about 10 d after treatment, 0 to 100 scale (0 no effect, 100 complete control), read-out: Ryegrass, Italian plant response rating), 50%; in assay [8] (preemergence, visual injury rating about 10 d after treatment, 0 to 100 scale (0 no effect, 100 complete control), read-out: Barnyardgrass plant response rating), 90%; in assay [9] (preemergence, visual injury rating about 10 d after treatment, 0 to 100 scale (0 no effect, 100 complete control), read-out: Pigweed plant response rating), 30%. Also, the plant injury at 125 g/ha in assay [14] (Postemergence, visual injury after approximately 10 d, 0 to 100 scale where 0 is no effect and 100 is complete control, read-out: Plant response rating, Wheat) was 20%.
